Test results taken from patent US10570122B2, “Compounds with anti-tumoral activity” (AB Science, priority 2015, dated 2020).
Entries after “also recorded” stand apart in the source; their conditions may differ.

How the values were obtained:
[1] = system: BT20; assay: CellTiter-Blue cell-based survival/proliferation assay, BT20; settings: Homo sapiens, BT-20; BT20 breast tumor cell line, 48 h
Outline: (§1)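 Compounds, diluted tenfold serially over 0–10 μM, are applied to 1·10^4 seeded cells per well for 48 h at 37 °C. Resorufin formed during a further 4 h with CellTiter-Blue is detected by fluorescence emission at 590 nm.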

[2] = system: MESSA; assay: CellTiter-Blue cell-based survival/proliferation assay, MESSA; settings: Homo sapiens, MES-SA; MESSA ovary tumor cell line, 48 h
Outline: as §1

[3] = system: H1299; assay: CellTiter-Blue cell-based survival/proliferation assay, H1299; settings: Homo sapiens, NCI-H1299; H1299 lung tumor cell line, 48 h
Outline: as §1

[4] = system: DU145; assay: CellTiter-Blue cell-based survival/proliferation assay, DU145; settings: Homo sapiens, DU-145; DU145 prostate tumor cell line, 48 h
Outline: as §1

[5] = system: CLS354; assay: CellTiter-Blue cell-based survival/proliferation assay, CLS354; settings: Homo sapiens, CLS-354; CLS354_4 head & neck tumor cell line, 48 h
Outline: as §1

[6] = system: BXPC3; assay: CellTiter-Blue cell-based survival/proliferation assay, BXPC3; settings: Homo sapiens, BXPC-3; BXPC3 pancreas tumor cell line, 48 h
Outline: as §1

[7] = system: PLCPRF5; assay: CellTiter-Blue cell-based survival/proliferation assay, PLCPRF5; settings: Homo sapiens, PLC-PRF-5; PLC_PRF5 liver tumor cell line, 48 h
Outline: as §1

[8] = system: human kinases (456 kinases); assay: KINOMEscan in vitro kinase profiling; type: binding; settings: for Interaction with the 456 kinases tested: screened at 1 μM; for Number of hits/number of kinases, S1: S(1): kinases with % Ctrl<1; for S-score, S1: S(1)=(number of kinases with % Ctrl<1)/(number of kinases tested); for Number of hits/number of kinases, S10: S(10): kinases with % Ctrl<10; for S-score, S10: S(10)=(number of kinases with % Ctrl<10)/(number of kinases tested); for Kinase targets, S1: kinases with % Ctrl<1
Procedure: An in vitro kinase profiling was conducted in order to evidence the absence of protein kinase inhibition by the compounds of the invention.
DiscoveRx (Ambit Biosciences) has developed a high-throughput system (KINOMEscan™) for screening of compounds against large numbers of human kinases (456 kinases).
The compounds of the invention were screened at the concentration of 1 μM, and results for primary screen binding interactions were reported as percent control (% Ctrl), where lower numbers indicate stronger hits. DMSO is used as a negative control (100% Ctrl) while a high affinity compound is used as a positive control (0% Ctrl). % Ctrl is calculated as follow:
[formula] Selectivity Score or S-score is a quantitative measure of compound selectivity. It is calculated by dividing the number of kinases that compounds bind to by the total number of distinct kinases tested, excluding mutant variants. S(10)=(number of kinases with % Ctrl<10)/(number of kinases tested), S(1)=(number of kinases with % Ctrl<1)/(number of kinases tested).

[9] = system: OPM2; assay: CellTiter-Blue cell-based survival/proliferation assay, OPM2; settings: Homo sapiens, OPM-2, Myeloma cell line OPM2, 48 h, read-out: Anti-tumoral activity (measured IC50) OPM2
Outline: as §1

[10] = system: A4513; assay: CellTiter-Blue cell-based survival/proliferation assay, A4513; settings: Homo sapiens; A4513 Ewing cell line, 48 h
Outline: as §1

[11] = system: HEP2; assay: CellTiter-Blue cell-based survival/proliferation assay, HEP2; settings: Homo sapiens, HEp-2; HEP2 head & neck tumor cell line, 48 h
Outline: as §1

[12] = system: U118; assay: CellTiter-Blue cell-based survival/proliferation assay, U118; settings: Homo sapiens; U118 glioblastoma cell line, 48 h
Outline: as §1

[13] = system: KARPAS299; assay: CellTiter-Blue cell-based survival/proliferation assay, KARPAS299; settings: Homo sapiens, KARPAS-299, Lymphoma cell line KARPAS299, 48 h, read-out: Anti-tumoral activity (measured IC50) KARPAS299
Outline: as §1

[14] = system: DLD1; assay: CellTiter-Blue cell-based survival/proliferation assay, DLD1; settings: Homo sapiens, DLD-1; DLD_1 colorectal tumor cell line, 48 h
Outline: as §1

[15] = system: A549; assay: CellTiter-Blue cell-based survival/proliferation assay, A549; settings: Homo sapiens; A549 lung tumor cell line, 48 h
Outline: as §1

[16] = system: AGS; assay: CellTiter-Blue cell-based survival/proliferation assay, AGS; settings: Homo sapiens; AGS stomach tumor cell line, 48 h
Outline: as §1

[17] = system: HGC27; assay: CellTiter-Blue cell-based survival/proliferation assay, HGC27; settings: Homo sapiens, HGC-27; HGC27 stomach tumor cell line, 48 h
Outline: as §1

[18] = system: HCT116; assay: CellTiter-Blue cell-based survival/proliferation assay, HCT116; settings: Homo sapiens, HCT-116; HCT116 colorectal tumor cell line, 48 h
Outline: as §1

[19] = system: CALU6; assay: CellTiter-Blue cell-based survival/proliferation assay, CALU6; settings: Homo sapiens, Calu-6; CALU6 lung tumor cell line, 48 h
Outline: as §1

[20] = system: A375; assay: CellTiter-Blue cell-based survival/proliferation assay, A375; settings: Homo sapiens, A-375; A375 melanoma cell line, 48 h
Outline: as §1

[21] = system: U2OS; assay: CellTiter-Blue cell-based survival/proliferation assay, U2OS; settings: Homo sapiens; U2OS osteosarcoma cell line, 48 h
Outline: as §1

[22] = system: HEPG2; assay: CellTiter-Blue cell-based survival/proliferation assay, HEPG2; settings: Homo sapiens; HEPG2 liver tumor cell line, 48 h
Outline: as §1

[23] = system: A498; assay: CellTiter-Blue cell-based survival/proliferation assay, A498; settings: Homo sapiens; A498 kidney tumor cell line, 48 h
Outline: as §1

[24] = system: ACHN; assay: CellTiter-Blue cell-based survival/proliferation assay, ACHN; settings: Homo sapiens; ACHN kidney tumor cell line, 48 h
Outline: as §1

[25] = system: PC3; assay: CellTiter-Blue cell-based survival/proliferation assay, PC3; settings: Homo sapiens, PC-3; PC3 prostate tumor cell line, 48 h
Outline: as §1

[26] = system: HUT78; assay: CellTiter-Blue cell-based survival/proliferation assay, HUT78; settings: Homo sapiens, Lymphoma cell line HUT78, 48 h, read-out: Anti-tumoral activity (measured IC50) HUT78
Outline: as §1

[27] = system: REC1; assay: CellTiter-Blue cell-based survival/proliferation assay, REC1; settings: Homo sapiens, Lymphoma cell line REC1, 48 h, read-out: Anti-tumoral activity (measured IC50) REC1
Outline: as §1

[28] = system: PANC1; assay: CellTiter-Blue cell-based survival/proliferation assay, PANC1; settings: Homo sapiens, PANC-1; PANC_1 pancreas tumor cell line, 48 h
Outline: as §1

[29] = system: MELWO; assay: CellTiter-Blue cell-based survival/proliferation assay, MELWO; settings: Homo sapiens; MEL_WO melanoma cell line, 48 h
Outline: as §1

[30] = system: U87MG; assay: CellTiter-Blue cell-based survival/proliferation assay, U87MG; settings: Homo sapiens, U-87 MG; U87_MG glioblastoma cell line, 48 h
Outline: as §1

[31] = system: TOV112D; assay: CellTiter-Blue cell-based survival/proliferation assay, TOV112D; settings: Homo sapiens; TOV112D ovary tumor cell line, 48 h
Outline: as §1

[32] = system: MDAMB231; assay: CellTiter-Blue cell-based survival/proliferation assay, MDAMB231; settings: Homo sapiens, MDA-MB-231; MDAMB231 breast tumor cell line, 48 h
Outline: as §1

[33] = system: HL60; assay: CellTiter-Blue cell-based survival/proliferation assay, HL60; settings: Homo sapiens, HL-60, Leukemia cell line HL60, 48 h, read-out: Anti-tumoral activity (measured IC50) HL60
Outline: as §1

[34] = system: SW579; assay: CellTiter-Blue cell-based survival/proliferation assay, SW579; settings: Homo sapiens; SW579 head & neck tumor cell line, 48 h
Outline: as §1

SMILES | IC50 [1] | IC50 [2] | IC50 [3] | IC50 [4] | IC50 [5] | IC50 [6] | IC50 [7] | Interaction with the 456 kinases tested [8] | Number of hits/number of kinases, S1 ([8]; tested at 1 μM) | S-score, S1 ([8]; tested at 1 μM) | Number of hits/number of kinases, S10 ([8]; tested at 1 μM) | S-score, S10 ([8]; tested at 1 μM) | Kinase targets, S1 ([8]; tested at 1 μM) | IC50 [9] | IC50 [10] | IC50 [11] | IC50 [12] | IC50 [13] | IC50 [14] | IC50 [15] | also measured
CCOCc1ccc(C)c(Nc2nc(-c3ccc(N4CCNC4=O)cc3)cs2)c1 [Example 003, 1-{4-[2-(5-Ethoxymethyl-(2-methyl-phenylamino))-thiazol-4-yl]-phenyl}-imidazolidin-2-one] | > 1000 nM | 100 to 500 nM | > 1000 nM | > 1000 nM | ≤ 100 nM | ≤ 100 nM | > 1000 nM | do not efficiently interact | 1/456 | 0.002 | 4/456 | 0.009 | PDGFRB | ≤ 100 nM | ≤ 100 nM | > 1000 nM | > 1000 nM | ≤ 100 nM | ≤ 100 nM | > 1000 nM | Kinase targets, S10 ([8]; tested at 1 μM, kinases with % Ctrl<10): KIT, KIT V559D,; also recorded: KIT L576P; IC50 [16]: > 1000 nM; IC50 [17]: > 1000 nM; IC50 [18]: 500 to 1000 nM; IC50 [19]: > 1000 nM; IC50 [20]: ≤ 100 nM; IC50 [21]: > 1000 nM; IC50 [22]: > 1000 nM; IC50 [23]: ≤ 100 nM; IC50 [24]: ≤ 100 nM; IC50 [25]: ≤ 100 nM; IC50 [26]: ≤ 100 nM; IC50 [27]: ≤ 100 nM; IC50 [28]: > 1000 nM; IC50 [29]: ≤ 100 nM; IC50 [30]: > 1000 nM; IC50 [31]: ≤ 100 nM; IC50 [32]: ≤ 100 nM; IC50 [33]: ≤ 100 nM; IC50 [34]: > 1000 nM
CCOCc1ccc(C)c(Nc2ncc(-c3ccc(N4CCNC4=O)cc3)o2)c1 [Example 006, 1-{4-[2-(5-Ethoxymethyl-(2-methyl-phenylamino))-oxazol-5-yl]-phenyl}-imidazolidin-2-one] | 100 to 500 nM | > 1000 nM | > 1000 nM | > 1000 nM | ≤ 100 nM | ≤ 100 nM | > 1000 nM | do not efficiently interact | 0/456 | 0.000 | 0/456 | 0.000 | None | ≤ 100 nM | ≤ 100 nM | > 1000 nM | > 1000 nM | ≤ 100 nM | ≤ 100 nM | > 1000 nM | IC50 [16]: > 1000 nM; IC50 [17]: > 1000 nM; IC50 [18]: > 1000 nM; IC50 [19]: > 1000 nM; IC50 [20]: ≤ 100 nM; IC50 [21]: 100 to 500 nM; IC50 [22]: > 1000 nM; IC50 [23]: 100 to 500 nM; IC50 [24]: ≤ 100 nM; IC50 [25]: ≤ 100 nM; IC50 [26]: ≤ 100 nM; IC50 [27]: ≤ 100 nM; IC50 [28]: > 1000 nM; IC50 [29]: ≤ 100 nM; IC50 [30]: > 1000 nM; IC50 [31]: ≤ 100 nM; IC50 [32]: ≤ 100 nM; IC50 [33]: ≤ 100 nM; IC50 [34]: > 1000 nM
